In patent US5693805A, “Process to derivatives of piperizinylcamphorsulfonyl oxytocin antagonists” (Merck & Co., Inc., priority 1995, dated 1997):

Target: T1, uterine OT receptors (Rattus norvegicus, UniProt P70536)
T1 construct: from tissue; host or cells: uterus of DES-treated rats, crude membrane preparation
T1 sequence (P70536 1-388): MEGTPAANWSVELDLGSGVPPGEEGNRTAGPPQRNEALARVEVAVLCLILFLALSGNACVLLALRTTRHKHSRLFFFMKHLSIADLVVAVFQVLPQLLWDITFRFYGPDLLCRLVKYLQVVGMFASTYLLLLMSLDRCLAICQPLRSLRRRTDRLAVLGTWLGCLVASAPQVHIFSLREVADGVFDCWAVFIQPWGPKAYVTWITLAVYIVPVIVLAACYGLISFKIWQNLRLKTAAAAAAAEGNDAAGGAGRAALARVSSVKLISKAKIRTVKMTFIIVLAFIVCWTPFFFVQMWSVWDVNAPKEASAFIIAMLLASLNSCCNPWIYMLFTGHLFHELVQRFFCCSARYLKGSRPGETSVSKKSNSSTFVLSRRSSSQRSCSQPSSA
Test: [3H]Oxytocin radioligand binding assay to uterine OT receptors (crude membrane preparation of uteri from DES-treated rats)
Conditions: competition at equilibrium, 60 min, 22° C., 1 nM [3H]OT, pH 7.4; Ki = IC50/1+c/Kd, Kd [3H]OT (uterus) 0.7 nM; three to six separate determinations
Description: The high affinity binding of [^3 H] […] Competition studies were conducted at equilibrium (60 minutes; 22° C.) using 1 nM[^3 H]OT in the following assay buffer: 50 mM Tris-HCl, 5 mM MgCl2, and 0.1% BSA, pH 7.4.

Ki: 7.7 nM
SMILES: Cc1ccccc1N1CCN(S(=O)(=O)C[C@]23CC[C@H](C[C@@H]2NC(=O)[C@@H](N)CCS(C)(=O)=O)C3(C)C)CC1 [Compound I]
